Experiments:
SNB-75 [1] = experiment: Growth inhibition against human SNB-75 cells assessed as lethal concentration incubated for 48 hrs by sulforhodamine B spectrophotometric assay; type: functional; conditions: read-out: LC50 (the source's name)
MDA-MB-231 [2] = experiment: Induction of apoptosis in human MDA-MB-231 cells assessed as increase in caspase-9 level at 5 uM incubated for 24 hrs by flow cytometry analysis; type: functional
T47D = experiment: Growth inhibition against human T47D cells assessed as lethal concentration incubated for 48 hrs by sulforhodamine B spectrophotometric assay; type: functional; conditions: read-out: LC50 (the source's name)
KM12 = experiment: Growth inhibition of human KM12 cells incubated for 48 hrs by sulforhodamine B spectrophotometric assay; type: functional
[3] = Acute toxicity in C57BL/6 mouse assessed as ratio of heart weight to body weight at 20 mg/kg,ip administration and observed after 22 days (reference value: 0.62 +/- 0.08); type: organism-based; conditions: in vivo, 528 h, time 22 day
MDA-MB-231 [4] = experiment: Induction of apoptosis in human MDA-MB-231 cells assessed as increase in caspase 3/7 activity at 10 uM incubated for 24 hrs by flow cytometry analysis; type: functional
SNB-75 [5] = experiment: Growth inhibition against human SNB-75 cells assessed as total growth inhibitory concentration incubated for 48 hrs by sulforhodamine B spectrophotometric assay; type: functional
786-0 [6] = experiment: Growth inhibition against human 786-0 cells assessed as lethal concentration incubated for 48 hrs by sulforhodamine B spectrophotometric assay; type: functional; conditions: read-out: LC50 (the source's name)
RXF 393 = experiment: Growth inhibition of human RXF 393 cells incubated for 48 hrs by sulforhodamine B spectrophotometric assay; type: functional
CCRF-CEM [7] = experiment: Induction of cell cycle arrest in human CCRF-CEM cells assessed as accumulation of cells at sub-G1 phase at 20.7 uM incubated for 24 hrs by propidium iodide staining based flow cytometry analysis (reference value: 2.36 +/- 0.049%); type: functional
HL-60 [8] = experiment: Growth inhibition against human HL-60 cells assessed as total growth inhibitory concentration incubated for 48 hrs by sulforhodamine B spectrophotometric assay; type: functional
NCI-H322M [9] = experiment: Growth inhibition of human NCI-H322M cells incubated for 48 hrs by sulforhodamine B spectrophotometric assay; type: functional
SF-539 = experiment: Growth inhibition against human SF-539 cells assessed as total growth inhibitory concentration incubated for 48 hrs by sulforhodamine B spectrophotometric assay; type: functional
SNB-19 = experiment: Growth inhibition against human SNB-19 cells assessed as lethal concentration incubated for 48 hrs by sulforhodamine B spectrophotometric assay; type: functional; conditions: read-out: LC50 (the source's name)
MOLT-4 [10] = experiment: Growth inhibition against human MOLT-4 cells assessed as lethal concentration incubated for 48 hrs by sulforhodamine B spectrophotometric assay; type: functional; conditions: read-out: LC50 (the source's name)
786-0 [11] = experiment: Growth inhibition of human 786-0 cells incubated for 48 hrs by sulforhodamine B spectrophotometric assay; type: functional
786-0 [12] = experiment: Growth inhibition against human 786-0 cells assessed as total growth inhibitory concentration incubated for 48 hrs by sulforhodamine B spectrophotometric assay; type: functional
[13] = Acute toxicity in C57BL/6 mouse assessed as change in red blood cells at 20 mg/kg,ip administration observed after 22 days; type: organism-based; conditions: in vivo, 528 h, time 22 day
TK-10 [14] = experiment: Growth inhibition against human TK-10 cells assessed as total growth inhibitory concentration incubated for 48 hrs by sulforhodamine B spectrophotometric assay; type: functional
ACHN = experiment: Growth inhibition against human ACHN cells assessed as total growth inhibitory concentration incubated for 48 hrs by sulforhodamine B spectrophotometric assay; type: functional
[15] = Cytotoxicity against human HCT116-p53-null cells assessed as cell growth inhibition incubated for 72 hrs by MTT assay; type: functional, cell-based
CCRF-CEM [16] = experiment: Induction of cell cycle arrest in human CCRF-CEM cells assessed as accumulation of cells at S phase at 20.7 uM incubated for 24 hrs by propidium iodide staining based flow cytometry analysis (reference value: 41.09 +/- 0.5%); type: functional
HL-60 [17] = experiment: Growth inhibition of human HL-60 cells incubated for 48 hrs by sulforhodamine B spectrophotometric assay; type: functional
A549 [18] = experiment: Growth inhibition against human A549 cells assessed as lethal concentration incubated for 48 hrs by sulforhodamine B spectrophotometric assay; type: functional; conditions: read-out: LC50 (the source's name)
MDA-MB-231 [19] = experiment: Growth inhibition against human MDA-MB-231 cells assessed as total growth inhibitory concentration incubated for 48 hrs by sulforhodamine B spectrophotometric assay; type: functional
NCI-H522 = experiment: Growth inhibition against human NCI-H522 cells assessed as total growth inhibitory concentration incubated for 48 hrs by sulforhodamine B spectrophotometric assay; type: functional
M14 [20] = experiment: Growth inhibition against human M14 cells assessed as total growth inhibitory concentration incubated for 48 hrs by sulforhodamine B spectrophotometric assay; type: functional
MOLT-4 [21] = experiment: Growth inhibition against human MOLT-4 cells assessed as total growth inhibitory concentration incubated for 48 hrs by sulforhodamine B spectrophotometric assay; type: functional
BT-549 [22] = experiment: Growth inhibition of human BT-549 cells incubated for 48 hrs by sulforhodamine B spectrophotometric assay; type: functional
IGROV-1 = experiment: Growth inhibition against human IGROV-1 cells assessed as total growth inhibitory concentration incubated for 48 hrs by sulforhodamine B spectrophotometric assay; type: functional
CAKI-1 = experiment: Growth inhibition against human CAKI-1 cells assessed as lethal concentration incubated for 48 hrs by sulforhodamine B spectrophotometric assay; type: functional; conditions: read-out: LC50 (the source's name)
TK-10 [23] = experiment: Growth inhibition against human TK-10 cells assessed as lethal concentration incubated for 48 hrs by sulforhodamine B spectrophotometric assay; type: functional; conditions: read-out: LC50 (the source's name)
SK-MEL-5 = experiment: Growth inhibition against human SK-MEL-5 cells assessed as lethal concentration incubated for 48 hrs by sulforhodamine B spectrophotometric assay; type: functional; conditions: read-out: LC50 (the source's name)
DU-145 = experiment: Growth inhibition against human DU-145 cells assessed as lethal concentration incubated for 48 hrs by sulforhodamine B spectrophotometric assay; type: functional; conditions: read-out: LC50 (the source's name)
BT-549 [24] = experiment: Anticancer activity against human BT-549 cells assessed as cell growth at 10 uM incubated for 48 hrs by sulforhodamine B assay; type: functional; conditions: read-out: Activity
PC-3 [25] = experiment: Growth inhibition of human PC-3 cells incubated for 48 hrs by sulforhodamine B spectrophotometric assay; type: functional
PC-3 [26] = experiment: Growth inhibition against human PC-3 cells assessed as total growth inhibitory concentration incubated for 48 hrs by sulforhodamine B spectrophotometric assay; type: functional
NCI-H322M [27] = experiment: Growth inhibition against human NCI-H322M cells assessed as total growth inhibitory concentration incubated for 48 hrs by sulforhodamine B spectrophotometric assay; type: functional
CCRF-CEM [28] = experiment: Induction of cell cycle arrest in human CCRF-CEM cells assessed as accumulation of cells at sub-G1 phase at 4.14 uM incubated for 24 hrs by propidium iodide staining based flow cytometry analysis (reference value: 2.36 +/- 0.049%); type: functional
M14 [29] = experiment: Growth inhibition of human M14 cells incubated for 48 hrs by sulforhodamine B spectrophotometric assay; type: functional
K562 = experiment: Cytotoxicity against human K562 cells assessed as cell growth inhibition incubated for 72 hrs by MTT assay; type: functional, cell-based; conditions: K562, 72 h
SF-295 = experiment: Growth inhibition against human SF-295 cells assessed as lethal concentration incubated for 48 hrs by sulforhodamine B spectrophotometric assay; type: functional; conditions: read-out: LC50 (the source's name)
MCF7 = experiment: Growth inhibition against human MCF7 cells assessed as total growth inhibitory concentration incubated for 48 hrs by sulforhodamine B spectrophotometric assay; type: functional
A549 [30] = experiment: Growth inhibition against human A549 cells assessed as total growth inhibitory concentration incubated for 48 hrs by sulforhodamine B spectrophotometric assay; type: functional

For `O=C1C2=C(C(=O)c3c(O)cccc31)C(c1ccco1)c1sc(=O)[nH]c1S2` (centres undefined), the CC50 (SNB-75 [1]) was 25.8 µM, the Activity (MDA-MB-231 [2]) was 15% and the CC50 (T47D) was > 100 µM. For the same molecule, the GI50 (KM12) was 3.71 µM, the Ratio [3] was 0.51 and the Activity (MDA-MB-231 [4]) was 20.6%. It also gave a TGI (SNB-75 [5]) of 7.61 µM, a CC50 (786-0 [6]) of 71.2 µM and a GI50 (RXF 393) of 2020 nM. It also gave an Activity (CCRF-CEM [7]) of 5.8%, a TGI (HL-60 [8]) of 6.09 µM and a GI50 (NCI-H322M [9]) of 1710 nM. The TGI (SF-539) was 3.69 µM, the CC50 (SNB-19) was 26.1 µM and the CC50 (MOLT-4 [10]) was > 100 µM. The GI50 (786-0 [11]) was 7.09 µM, the TGI (786-0 [12]) was 24.2 µM and the Activity [13] was “Non-Toxic”. It also gave a TGI (TK-10 [14]) of 26.4 µM, a TGI (ACHN) of 16.1 µM and an IC50 [15] of 2370 nM. For the same molecule, the Activity (CCRF-CEM [16]) was 42.33%, the GI50 (HL-60 [17]) was 1820 nM and the CC50 (A549 [18]) was 7.38 µM. The TGI (MDA-MB-231 [19]) was 9.08 µM, the TGI (NCI-H522) was 6.99 µM and the TGI (M14 [20]) was 2370 nM. For the same molecule, the TGI (MOLT-4 [21]) was 9.88 µM, the GI50 (BT-549 [22]) was 1640 nM and the TGI (IGROV-1) was 6.14 µM. It also gave a CC50 (CAKI-1) of 37.3 µM, a CC50 (TK-10 [23]) of 56.4 µM and a CC50 (SK-MEL-5) of 5.68 µM. For the same molecule, the CC50 (DU-145) was 5.81 µM, the growth at 10 µM (BT-549 [24]) was -96.8% and the GI50 (PC-3 [25]) was 2750 nM. It also gave a TGI (PC-3 [26]) of 21.6 µM, a TGI (NCI-H322M [27]) of 3.13 µM and an Activity (CCRF-CEM [28]) of 5.02%. It also gave a GI50 (M14 [29]) of 1060 nM, an IC50 (K562) of 5.98 µM and a CC50 (SF-295) of 6.5 µM. The TGI (MCF7) was 3.34 µM and the TGI (A549 [30]) was 3.63 µM.

— ChEMBL document CHEMBL5360558, “Molecular design, synthesis and anticancer activity of new thiopyrano[2,3-d]thiazoles based on 5-hydroxy-1,4-naphthoquinone (juglone)” (Eur J Med Chem, 2023)
